Results reported in patent US20140080787A1, “Method for the Treatment of Neuropathies Associated with Charcot-Marie-Tooth 1A (CMT1A) Disease” (National Institutes of Health, US Dept of Health and Human …, priority 2012, published 2014).
Blank lines part the entries; values can stand above or below the compound they belong to.

Columns and labels:
PMP22 [1] = assay: PMP22 expression in S16 Schwann cells, quantitative rtPCR; format: cell-based; conditions: for RQ (Relative Quantity) PMP22-P1 / RQ (Relative Quantity) PMP22-P2: normalized to beta-actin, untreated = 1.000; for PMP22 P1 relative level of expression / PMP22 P2 relative level of expression: 24 h, S16 Schwann cells, relative to untreated control, normalized to 18S rRNA, ± S.D.
Experimental: To determine if proteasome inhibitors affect endogenous PMP22 expression, quantitative rtPCR was utilized to measure the abundance of PMP22 mRNA transcript in the S16 Schwann cells, which were plated in 6 well plates and treated with each compound at the indicated concentrations. After 24 h., the cells were harvested to purify RNA, 1 μg of which was converted into cDNA. Quantitative rtPCR was performed in either SYBR green-based reactions or Taqman-based customized 384-well micro fluidic arrays using a ViiA7 system or StepOne Plus (Applied Biosystems). Abundance of gene expression was first normalized to beta-actin (ActB, NM_031144.2) or 18 S rRNA, which served as an endogenous loading control across samples, and then determined relative to the untreated sample for each gene using the comparative Ct method described by K. J. Livak and T. D. Schmittgen (Analysis of relative gene expression data using real-time quantitative PCR and the 2^ΔΔCT method. Methods, 2001, 25, 402-408).
S16 Schwann cells were treated with indicated proteasome inhibitors for 24 h. RNA was prepared and analyzed by quantitative rtPCR using promoter specific primers for PMP22 (labeled P1 and P2). Relative levels of expression are shown relative to untreated control cells. Values are normalized to 18S rRNA. Errors reflect the standard deviation (S.D.) of technical duplicates.
RQ=Relative Quantity, normalized to beta-actin

PMP22 [2] = assay: PMP22 expression in sciatic nerve of CMT1A rats, quantitative rtPCR; format: in vivo, rat; conditions: vehicle = 1.00, ± SEM
Excerpt: Abundance of gene expression could be determined relative to an untreated sample for each gene using the comparative Ct method as described in the procedure published by K. J. Livak and T. D. Schmittgen (Analysis of relative gene expression data using real-time quantitative PCR and the 2^ΔΔCT method. Methods, 2001, 25, 402-408).
Changes in the expression of peripheral and central nervous system gene makers (including myelin markers such as PMP22, P0, and Myelin Basic Protein) were followed after proteasome inhibitor administration, and a reduction of PMP22 expression was observed. Changes in PMP22 gene expression were correlated with measures of neurological function that are used to measure the CMT1A neuropathy. These measures of neurological function included measures of motor coordination, nerve conduction velocity, and histology of femoral motor and sensory nerves. Relevant measures of CMT1A function have been outlined by J. C. Noreel and co-authors (Behavioural profiling of a murine Charcot-Marie-Tooth disease type 1A model. Eur. J. Neurosci. 2001, 13, 1625-1634).
Bortezomib was administered subcutaneously (s.c.) at a dose equivalent to 0.1 mg substance/kg of body weight, using an injection concentration of 2.5 mg of substance/ml. RNA was purified from sciatic nerve at 7 d post-injection. […] Errors indicate the standard error of the mean (SEM).
Oprozomib (ONX-0912) was administered at the indicated doses by oral gavage and RNA was purified from sciatic nerve at 7 d. […] Errors indicate SEM. Vehicle was 10% EtOH, 10% Tween80, 80% 10 mM citrate buffer pH=3.5 (see; Zhou, H-J. et al., Design and Synthesis of an Orally Bioavailable and Selective Peptide Epoxyketone Proteasome Inhibitor (PR-047). J. Med. Chem., 2009, 52, 3028-3038).

human PMP22 gene = assay: Orthogonal reporter assays (firefly luciferase or β-lactamase coupled to the intronic regulatory element of the human PMP22 gene); format: cell-based; conditions: targeted screening, firefly luciferase and β-lactamase reporters
Excerpt: A cross-validating pair of orthogonal reporter assays, which employ either firefly luciferase or β-lactamase coupled to the intronic regulatory element of the human PMP22 gene, were used to measure CMT1A PMP22 overexpression as a means of identifying transcriptional inhibitors with therapeutic value toward CMT1A. […] A description of assays and methods used to identify compounds has been provided by S-W Jang and co-authors (Identification of drug modulators targeting gene-dosage disease. ACS Chem Biol., 2012, 7, 1205-1213).

PMP22 [3] = assay: Effect on PMP22 expression in mice after a single s.c. injection; format: in vivo; conditions: 10 mg/kg, n = 4, vehicle printed 0.739 ± 0.07
Excerpt: MLN9708. Anatomical areas of subcutaneous administration could include the right or left thigh, or abdomen. The same anatomical area can be used for repeated administration. However, injections are typically to be rotated between sites (see; Fledrich, R. M. et al., Murine therapeutic models for Charcot-Marie-Tooth (CMT) disease. British Medical Bulletin, 2012, 102, 89-113).

[4] = 0.1 mg/kg s.c., sciatic nerve, 7 d post-injection, n = 9
[5] = 10 mg/kg oral gavage, sciatic nerve at 7 d, n = 7
[6] = 30 mg/kg oral gavage, sciatic nerve at 7 d, n = 7

- Effect on CMT1A PMP22 overexpression in reporter assays (human PMP22 gene): selectively reducing CMT1A expression
Structure (SMILES): CC(C)C[C@H](NC(=O)[C@H](Cc1ccccc1)NC(=O)c1cnccn1)B(O)O [Bortezomib, [(1R)-3-methyl-1-({(2S)-3-phenyl-2-[(pyrazin-2-ylcarbonyl)amino]propanoyl}amino)butyl]boronic acid]
- RQ (Relative Quantity) PMP22-P1 (PMP22 [1]; 10 nM): 0.517
- RQ (Relative Quantity) PMP22-P2 (PMP22 [1]; 10 nM): 0.809
- RQ (Relative Quantity) PMP22-P1 (PMP22 [1]; 100 nM): 0.032
- RQ (Relative Quantity) PMP22-P2 (PMP22 [1]; 100 nM): 0.153
- RQ (Relative Quantity) PMP22-P1 (PMP22 [1]; 1 μM): 0.041
- RQ (Relative Quantity) PMP22-P2 (PMP22 [1]; 1 μM): 0.232
- RQ (Relative Quantity) PMP22-P1 (PMP22 [1]; 10 μM): 0.077
- RQ (Relative Quantity) PMP22-P2 (PMP22 [1]; 10 μM): 0.285
- PMP22 P1 relative level (PMP22 [2]; [4]): 0.675 ± 0.17
- PMP22 P2 relative level (PMP22 [2]; [4]): 0.4 ± 0.07
- Total PMP22 relative level (PMP22 [2]; [4]): 0.3 ± 0.05

Structure (SMILES): CC(C)C[C@H](NC(=O)[C@H](CCc1ccccc1)NC(=O)CN1CCOCC1)C(=O)N[C@@H](Cc1ccccc1)C(=O)N[C@@H](CC(C)C)C(=O)[C@@]1(C)CO1 [Carfilzomib, (S)-4-nethyl-N-((S)-1-(((S)-4-methyl-1-((R)-2-methyloxiran-2-yl)-1-oxopentan-2-yl)amino)-1-oxo-3-phenylpropan-2-yl)-2-((S)-2-(2-morpholinoacetamido)-4-phenylbutanamido)pentanamide]
- PMP22 P1 relative level of expression (PMP22 [1]; 1 nM): 0.003 ± 0.0004
- PMP22 P2 relative level of expression (PMP22 [1]; 1 nM): 0.012 ± 0.004
- PMP22 P1 relative level of expression (PMP22 [1]; 2.5 nM): 0.006 ± 0.0005
- PMP22 P2 relative level of expression (PMP22 [1]; 2.5 nM): 0.027 ± 0.0037
- PMP22 P1 relative level of expression (PMP22 [1]; 5 nM): 0.006 ± 0.0019
- PMP22 P2 relative level of expression (PMP22 [1]; 5 nM): 0.037 ± 0.00026
- PMP22 P1 relative level of expression (PMP22 [1]; 10 nM): 0.014 ± 0.0007
- PMP22 P2 relative level of expression (PMP22 [1]; 10 nM): 0.046 ± 0.0022
- PMP22 P1 relative level of expression (PMP22 [1]; 100 nM): 0.009 ± 0.0055
- PMP22 P2 relative level of expression (PMP22 [1]; 100 nM): 0.027 ± 0.017
- PMP22 P1 relative level of expression (PMP22 [1]; 1 μM): 0.008 ± 0.0024
- PMP22 P2 relative level of expression (PMP22 [1]; 1 μM): 0.036 ± 0.0049

Structure (SMILES): CC(C)C[C@H](NC(=O)CNC(=O)c1cc(Cl)ccc1Cl)B(O)O [MLN2238, (R)-1-(2-(2,5-dichlorobenzamido)acetamido)-3-methylbutylboronic acid]
- PMP22 P1 relative level of expression (PMP22 [1]; 25 nM): 1.177 ± 0.42
- PMP22 P2 relative level of expression (PMP22 [1]; 25 nM): 0.837 ± 0.041
- PMP22 P1 relative level of expression (PMP22 [1]; 50 nM): 0.826 ± 0.225
- PMP22 P2 relative level of expression (PMP22 [1]; 50 nM): 0.865 ± 0.141
- PMP22 P1 relative level of expression (PMP22 [1]; 100 nM): 0.005 ± 0.0005
- PMP22 P2 relative level of expression (PMP22 [1]; 100 nM): 0.020 ± 0.005
- PMP22 P1 relative level of expression (PMP22 [1]; 1 μM): 0.003 ± 0.0007
- PMP22 P2 relative level of expression (PMP22 [1]; 1 μM): 0.022 ± 0.0026
- PMP22 P1 relative level of expression (PMP22 [1]; 10 μM): 0.007 ± 0.00003
- PMP22 P2 relative level of expression (PMP22 [1]; 10 μM): 0.018 ± 0.0123

Structure (SMILES): CC(C)C[C@H](NC(=O)CNC(=O)c1cc(Cl)ccc1Cl)B1OC(=O)CC(CC(=O)O)(C(=O)O)O1 (stereo partly drawn) [MLN9708, 4-(carboxymethyl)-2-((R)-1-(2-(2,5-dichlorobenzamido)acetamido)-3-methylbutyl)-6-oxo-1,3,2-dioxaborinane-4-carboxylic acid]
- Total PMP22 relative level (PMP22 [3]): 1.00 ± 0.09

Structure (SMILES): COC[C@H](NC(=O)c1cnc(C)s1)C(=O)N[C@@H](COC)C(=O)N[C@@H](Cc1ccccc1)C(=O)[C@@]1(C)CO1 [Oprozomib, O-methyl-N-[(2-methyl-5-thiazolyl)carbonyl]-L-seryl-O-methyl-N-[(1S)-2-[(2R)-2-methyl-2-oxiranyl]-2-oxo-1-(phenylmethyl)ethyl]-L-serinamide]
- PMP22 P1 relative level (PMP22 [2]; [5]): 0.46 ± 0.15
- PMP22 P2 relative level (PMP22 [2]; [5]): 3.1 ± 0.9
- Total PMP22 relative level (PMP22 [2]; [5]): 0.62 ± 0.17
- PMP22 P1 relative level (PMP22 [2]; [6]): 0.46 ± 0.1
- PMP22 P2 relative level (PMP22 [2]; [6]): 1.87 ± 0.77
- Total PMP22 relative level (PMP22 [2]; [6]): 0.61 ± 0.07
